Measured values from ChEMBL document CHEMBL1201862, “PubChem BioAssay data set” (2004).
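Cells were grown in 96-well plates and exposed to each compound for 48 hours at five concentrations; endpoints were interpolated linearly between bracketing concentrations, or set to the highest concentration if not reached. GI50 marks 50% less growth.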 Calls of active or inactive are those of the source. No stated cut-off is given here; in the data, active = GI50 up to about 1.1 µM and inactive = higher.

Tests used:
Assay in all cases: DTP human tumour cell line panel, 48 h
NCI-H460 = tested on: NCI-H460
EKVX = tested on: EKVX
SK-MEL-5 = tested on: SK-MEL-5
RXF 393 = tested on: RXF 393
COLO 205 = tested on: COLO 205
MOLT-4 = tested on: MOLT-4
UACC-62 = tested on: UACC-62
UO-31 = tested on: UO-31
HT-29 = tested on: HT-29
UACC-257 = tested on: UACC-257
OVCAR-5 = tested on: OVCAR-5
SNB-19 = tested on: SNB-19
RPMI-8226 = tested on: RPMI-8226
SF-268 = tested on: SF-268
IGROV-1 = tested on: IGROV-1
A549 = tested on: A549
OVCAR-8 = tested on: OVCAR-8
NCI-H23 = tested on: NCI-H23
SK-MEL-28 = tested on: SK-MEL-28
SW-620 = tested on: SW-620

| Structure (SMILES) | GI50 (NCI-H460) | GI50 (EKVX) | GI50 (SK-MEL-5) | GI50 (RXF 393) | GI50 (COLO 205) | GI50 (MOLT-4) | GI50 (UACC-62) | GI50 (UO-31) | GI50 (HT-29) | GI50 (UACC-257) | GI50 (OVCAR-5) | GI50 (SNB-19) | GI50 (RPMI-8226) | GI50 (SF-268) | GI50 (IGROV-1) | GI50 (A549) | GI50 (OVCAR-8) | GI50 (NCI-H23) | GI50 (SK-MEL-28) | GI50 (SW-620) |
| --- | --- | --- | --- | --- | --- | --- | --- | --- | --- | --- | --- | --- | --- | --- | --- | --- | --- | --- | --- | --- |
| CCOC(=O)c1c(N=C(S)Nc2ccccc2)sc2c1CCN(C)C2 | > 100 µM (inactive) | > 100 µM (inactive) | > 100 µM (inactive) | > 100 µM (inactive) | > 100 µM (inactive) | > 100 µM (inactive) | > 100 µM (inactive) | > 100 µM (inactive) | > 100 µM (inactive) | > 100 µM (inactive) | > 100 µM (inactive) | > 100 µM (inactive) | > 100 µM (inactive) | > 100 µM (inactive) | > 100 µM (inactive) | > 100 µM (inactive) | > 100 µM (inactive) | > 100 µM (inactive) | – | – |
| C[C@H](O)C(=O)SC[C@H](NC(=O)CC[C@@H](N)C(=O)O)C(=O)NCC(=O)O | > 100 µM (inactive) | > 100 µM (inactive) | > 100 µM (inactive) | > 100 µM (inactive) | > 100 µM (inactive) | > 100 µM (inactive) | > 100 µM (inactive) | > 100 µM (inactive) | > 100 µM (inactive) | > 100 µM (inactive) | > 100 µM (inactive) | – | > 100 µM (inactive) | > 100 µM (inactive) | > 100 µM (inactive) | – | > 100 µM (inactive) | > 100 µM (inactive) | > 100 µM (inactive) | > 100 µM (inactive) |
| N#CCc1c(F)c(F)c(F)c(F)c1F | – | > 100 µM (inactive) | 54.6 µM (inactive) | > 100 µM (inactive) | > 100 µM (inactive) | > 100 µM (inactive) | > 100 µM (inactive) | > 100 µM (inactive) | > 100 µM (inactive) | > 100 µM (inactive) | > 100 µM (inactive) | > 100 µM (inactive) | > 100 µM (inactive) | > 100 µM (inactive) | > 100 µM (inactive) | > 100 µM (inactive) | > 100 µM (inactive) | > 100 µM (inactive) | > 100 µM (inactive) | > 100 µM (inactive) |
| OCCCC(O)(c1ccccc1)c1ccccc1 | > 100 µM (inactive) | > 100 µM (inactive) | > 100 µM (inactive) | > 100 µM (inactive) | – | > 100 µM (inactive) | > 100 µM (inactive) | > 100 µM (inactive) | > 100 µM (inactive) | > 100 µM (inactive) | > 100 µM (inactive) | > 100 µM (inactive) | > 100 µM (inactive) | > 100 µM (inactive) | > 100 µM (inactive) | > 100 µM (inactive) | > 100 µM (inactive) | > 100 µM (inactive) | > 100 µM (inactive) | > 100 µM (inactive) |
| CC[C@]12C=CCN3CC[C@@]4(c5cc(Br)c(OC)c([N+](=O)[O-])c5N(C)[C@H]4[C@@](O)(C(=O)OC)[C@@H]1OC(C)=O)[C@@H]32 | 40.8 µM (inactive) | 29.6 µM (inactive) | 36.2 µM (inactive) | 98.2 µM (inactive) | 27.8 µM (inactive) | 13.2 µM (inactive) | > 100 µM (inactive) | 89.5 µM (inactive) | > 100 µM (inactive) | 33.3 µM (inactive) | > 100 µM (inactive) | 71.9 µM (inactive) | 6.52 µM (inactive) | 30.1 µM (inactive) | 24.1 µM (inactive) | 39.8 µM (inactive) | 30.5 µM (inactive) | 56.9 µM (inactive) | 63.4 µM (inactive) | 23.8 µM (inactive) |
| CC(C)=CC1(C)/C(=N\O)C(C)(CC(C)C)C(=O)N1O (centres undefined) | > 100 µM (inactive) | > 100 µM (inactive) | > 100 µM (inactive) | > 100 µM (inactive) | > 100 µM (inactive) | > 100 µM (inactive) | > 100 µM (inactive) | > 100 µM (inactive) | > 100 µM (inactive) | > 100 µM (inactive) | > 100 µM (inactive) | > 100 µM (inactive) | > 100 µM (inactive) | – | > 100 µM (inactive) | > 100 µM (inactive) | > 100 µM (inactive) | > 100 µM (inactive) | > 100 µM (inactive) | > 100 µM (inactive) |
| CC1CC/C(=C\c2ccc(Cl)cc2)C(=O)/C1=C\c1ccc(Cl)cc1 (centres undefined) | – | 26.4 µM (inactive) | 20.4 µM (inactive) | 33.9 µM (inactive) | 32.1 µM (inactive) | – | 25.4 µM (inactive) | 36.4 µM (inactive) | 30.9 µM (inactive) | 42.7 µM (inactive) | 21.6 µM (inactive) | > 10 µM (inactive) | – | 34.2 µM (inactive) | 22.4 µM (inactive) | 35.3 µM (inactive) | 30.1 µM (inactive) | – | 53.1 µM (inactive) | 41.3 µM (inactive) |
| COc1ccc(/N=C(\C)c2ccncc2)cc1 | > 100 µM (inactive) | > 100 µM (inactive) | 94.8 µM (inactive) | > 100 µM (inactive) | > 100 µM (inactive) | > 100 µM (inactive) | > 100 µM (inactive) | 24.2 µM (inactive) | > 100 µM (inactive) | > 100 µM (inactive) | 72.8 µM (inactive) | > 100 µM (inactive) | 16.7 µM (inactive) | 50.6 µM (inactive) | > 100 µM (inactive) | 47.2 µM (inactive) | > 100 µM (inactive) | 89.3 µM (inactive) | > 100 µM (inactive) | 86.5 µM (inactive) |
| CCCCCCCSc1nc2c(C(=O)OCC)ncn2c2ccccc12 | > 100 µM (inactive) | > 100 µM (inactive) | – | > 100 µM (inactive) | > 100 µM (inactive) | > 100 µM (inactive) | > 100 µM (inactive) | > 100 µM (inactive) | > 100 µM (inactive) | > 100 µM (inactive) | > 100 µM (inactive) | – | > 100 µM (inactive) | > 100 µM (inactive) | > 100 µM (inactive) | – | > 100 µM (inactive) | > 100 µM (inactive) | > 100 µM (inactive) | > 100 µM (inactive) |
| O=C(c1nc2ccc(Cl)cc2nc1O)C(O)c1ccccc1 (centres undefined) | > 100 µM (inactive) | 22 µM (inactive) | > 100 µM (inactive) | – | > 100 µM (inactive) | 13.2 µM (inactive) | 96.8 µM (inactive) | > 100 µM (inactive) | > 100 µM (inactive) | > 100 µM (inactive) | > 100 µM (inactive) | > 100 µM (inactive) | 3.85 µM (inactive) | 77.1 µM (inactive) | > 100 µM (inactive) | 35.2 µM (inactive) | > 100 µM (inactive) | 92.9 µM (inactive) | 68.7 µM (inactive) | > 100 µM (inactive) |
| O=C(Nc1c(C(=O)NC2CCCCC2)[nH]c(=O)[nH]c1=O)c1ccc(Cl)cc1 | > 100 µM (inactive) | > 100 µM (inactive) | > 100 µM (inactive) | 79.6 µM (inactive) | > 100 µM (inactive) | > 100 µM (inactive) | > 100 µM (inactive) | > 100 µM (inactive) | > 100 µM (inactive) | – | > 100 µM (inactive) | < 0.01 µM (active) | > 100 µM (inactive) | > 100 µM (inactive) | > 100 µM (inactive) | > 100 µM (inactive) | > 100 µM (inactive) | – | > 100 µM (inactive) | > 100 µM (inactive) |
| N#C/C(=C1/Sc2c(nc[nH]c2=O)N1c1ccccc1)c1nc2ccccc2[nH]1 | > 100 µM (inactive) | > 100 µM (inactive) | > 100 µM (inactive) | – | > 100 µM (inactive) | > 100 µM (inactive) | > 100 µM (inactive) | > 100 µM (inactive) | > 100 µM (inactive) | > 100 µM (inactive) | > 100 µM (inactive) | > 100 µM (inactive) | > 100 µM (inactive) | > 100 µM (inactive) | > 100 µM (inactive) | > 100 µM (inactive) | > 100 µM (inactive) | > 100 µM (inactive) | > 100 µM (inactive) | > 100 µM (inactive) |
| Cn1cc(NC(=O)[C@H]2CCC(N)=N2)cc1C(=O)NCCC(=N)N | > 100 µM (inactive) | > 100 µM (inactive) | – | > 100 µM (inactive) | > 100 µM (inactive) | > 100 µM (inactive) | > 100 µM (inactive) | > 100 µM (inactive) | > 100 µM (inactive) | > 100 µM (inactive) | – | > 100 µM (inactive) | > 100 µM (inactive) | > 100 µM (inactive) | > 100 µM (inactive) | > 100 µM (inactive) | > 100 µM (inactive) | > 100 µM (inactive) | > 100 µM (inactive) | > 100 µM (inactive) |
| CCOC(=O)c1cc(C2CCN(Cc3ccccc3)C2=S)c(C(=O)C=[N+]=[N-])[nH]1 (centres undefined) | 23.9 µM (inactive) | 26.7 µM (inactive) | 19.3 µM (inactive) | 31 µM (inactive) | 33.8 µM (inactive) | 30.4 µM (inactive) | 18.3 µM (inactive) | 18.8 µM (inactive) | 31.5 µM (inactive) | 25.8 µM (inactive) | 30.3 µM (inactive) | 28.8 µM (inactive) | 45.9 µM (inactive) | 25.8 µM (inactive) | 24.7 µM (inactive) | 26.4 µM (inactive) | 37.3 µM (inactive) | 21.7 µM (inactive) | 26 µM (inactive) | 38.6 µM (inactive) |
| Fc1ccc2c(c1)SC1=Nc3sc4cc(F)ccc4[n+]3CN12 | 25.5 µM (inactive) | 28 µM (inactive) | 11.1 µM (inactive) | 26.5 µM (inactive) | 26.9 µM (inactive) | – | 11.1 µM (inactive) | 19.1 µM (inactive) | 28.8 µM (inactive) | 18.9 µM (inactive) | 25.7 µM (inactive) | 16.4 µM (inactive) | 0.437 µM (active) | 29.6 µM (inactive) | 3.91 µM (inactive) | 12.4 µM (inactive) | 14.6 µM (inactive) | 17.5 µM (inactive) | 39.6 µM (inactive) | 27.3 µM (inactive) |
